Results as given in patent US20070276103A1, “Fluorinated Surfactants” (3M Innovative Properties Company, priority 2006, published 2007).
Where two headings read alike, the source gives them in different places.

What was measured:
[1] = Determination of bio-accumulation: urinary clearance pharmacokinetic study in rats; details: male Sprague Dawley rats, 73 micro Moles per kg, oral gavage; for Compound-related Effects: clinical signs of toxicity and gross necropsy at 96 hours post-dose; for % Recovery (96 h): recovery of compound in urine 96 h post-dose; for T ½: renal (urinary) elimination half-life, parent compound in urine by fluorine NMR, exponential least squares curve fitting
Procedure: (§1) The perfluorinated and partially fluorinated carboxylates were evaluated for urinary clearance using a pharmacokinetic study in rats. The goal was to measure the total amount of parent compound eliminated via urinary output and estimate the rate of elimination.
(§2) The study utilized male Sprague Dawley rats, 6 to 8 weeks of age, and approximately 200 to 250 g body weight at study onset. The test compounds of Table 2 were administered at a dose of 73 micro Moles per kg body weight in rats (N=3 animals per tested compound). All test compounds were prepared in sterile deionized water and given to rats via oral gavage. After test compound administration, the rats were housed individually in metabolism cages for urine collection: 0 to 6 hours, 6 to 24 hours, 24 to 48 hours and 72 to 96 hours. Animals were observed throughout the study for clinical signs of toxicity. Gross necropsy was performed at the termination of each study (96 hours post-dose) with sera and liver samples being retained from each animal.
(§3) The concentration of the parent compound or metabolites thereof were quantitatively measured via fluorine NMR on each urine sample for each animal at each time point based on internally added standards.
(§4) In Table 2, T1/2 is the time required for the amount of a particular substance in a biological system to be reduced to one half of its value by biological processes when the rate of removal is approximately exponential. In these examples the value of T1/2 is calculated by exponential least squares curve fitting (y=AeBX and T1/2=0.693/B) where y represents the concentration of analyte in urine and x represents time in hours.

[2] = rat, in vivo, po
Procedure: as §1, §2, §3, §4

Compound	Compound-related Effects [1]	% Recovery (96 h) [1] [%]	T ½ [1] [days]	Compound-related Effects [2]
N.O=C(O)C(F)(F)C(F)(F)OC(F)(F)C(F)(F)C(F)(F)C(F)(F)F [Example 1, C4F9—O—CF2—CF2—COONH4]	Hepatomegaly	42	1.29	–
N.O=C(O)C(F)(F)C(F)(F)C(F)(F)C(F)(F)C(F)(F)OC(F)C(F)(F)F (centres unmarked) [Example 3, CF3—CFH—O—(CF2)5—COONH4]	–	–	–	Hepatomegaly
N.O=C(O)C(F)(F)C(F)(F)C(F)(F)C(F)(F)C(F)(F)C(F)(F)C(F)(F)F [Example C1, CF3(CF2)6COONH4]	Hepatomegaly	6	~22.9	–
N.O=C(O)C(F)(F)OC(F)(F)C(F)(OC(F)(F)C(F)(F)C(F)(F)F)C(F)(F)F (centres unmarked) [Example C2, CF3CF2CF2OCF(CF3)CF2OCF2COONH4]	–	–	–	Hepatomegaly
